According to paper PMC8213057, “Targeting ALK2: An Open Science Approach to Developing Therapeutics for the Treatment of Diffuse Intrinsic Pontine Glioma” (Journal of Medicinal Chemistry, 2020):

Experiments:
JAK2 = JAK2 (Homo sapiens, UniProt O60674); settings: 1 μM; Run 1, Run 2
PAK2 = PAK2 (Homo sapiens, UniProt Q13177); experiment: biochemical; settings: read-out: % enzyme activity, 1 μM; Run 1, Run 2
HIPK4 = target: T1, HIPK4 (Homo sapiens, UniProt Q8NE63); settings: 1 μM; Run 1, Run 2
T1 sequence (Q8NE63 1-616): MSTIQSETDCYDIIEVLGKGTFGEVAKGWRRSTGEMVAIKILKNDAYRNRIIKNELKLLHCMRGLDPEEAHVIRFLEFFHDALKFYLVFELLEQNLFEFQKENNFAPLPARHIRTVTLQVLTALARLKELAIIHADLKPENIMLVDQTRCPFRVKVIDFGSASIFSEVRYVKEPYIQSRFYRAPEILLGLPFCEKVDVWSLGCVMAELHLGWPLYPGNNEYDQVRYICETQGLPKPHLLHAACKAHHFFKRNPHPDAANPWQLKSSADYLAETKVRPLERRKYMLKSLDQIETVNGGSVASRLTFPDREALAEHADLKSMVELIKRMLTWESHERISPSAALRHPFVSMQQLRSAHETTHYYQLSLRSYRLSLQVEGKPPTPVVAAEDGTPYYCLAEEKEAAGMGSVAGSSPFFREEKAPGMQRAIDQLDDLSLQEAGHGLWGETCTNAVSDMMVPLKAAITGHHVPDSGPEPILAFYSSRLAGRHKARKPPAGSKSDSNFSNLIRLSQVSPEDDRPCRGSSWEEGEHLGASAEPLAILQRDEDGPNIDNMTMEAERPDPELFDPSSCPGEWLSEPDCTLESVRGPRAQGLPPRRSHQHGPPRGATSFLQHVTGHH

TLK1 = target: T2, TLK1 (Homo sapiens, UniProt Q9UKI8); settings: 1 μM; Run 1, Run 2
T2 sequence (Q9UKI8 1-766): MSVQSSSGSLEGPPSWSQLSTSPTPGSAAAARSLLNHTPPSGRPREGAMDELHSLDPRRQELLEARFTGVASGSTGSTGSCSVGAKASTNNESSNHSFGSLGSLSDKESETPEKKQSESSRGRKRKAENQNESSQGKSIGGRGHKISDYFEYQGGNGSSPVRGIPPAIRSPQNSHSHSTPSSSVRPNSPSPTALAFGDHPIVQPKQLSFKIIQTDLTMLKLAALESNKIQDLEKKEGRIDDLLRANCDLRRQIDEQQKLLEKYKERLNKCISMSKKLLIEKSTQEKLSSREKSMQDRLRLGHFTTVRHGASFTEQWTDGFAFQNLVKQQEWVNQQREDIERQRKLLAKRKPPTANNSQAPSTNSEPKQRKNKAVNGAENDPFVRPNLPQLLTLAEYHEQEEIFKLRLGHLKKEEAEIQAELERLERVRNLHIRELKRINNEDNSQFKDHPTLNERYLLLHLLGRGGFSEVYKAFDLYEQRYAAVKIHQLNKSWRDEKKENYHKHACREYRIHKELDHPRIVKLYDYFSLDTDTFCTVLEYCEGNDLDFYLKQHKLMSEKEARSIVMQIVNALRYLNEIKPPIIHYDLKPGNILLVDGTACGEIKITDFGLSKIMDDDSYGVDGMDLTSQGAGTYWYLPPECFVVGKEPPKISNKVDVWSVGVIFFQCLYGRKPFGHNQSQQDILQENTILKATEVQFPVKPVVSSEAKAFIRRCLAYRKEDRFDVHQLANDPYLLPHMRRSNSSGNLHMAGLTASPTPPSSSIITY

LKB1 = target: T3, LKB1 (Homo sapiens, UniProt Q15831); settings: 1 μM; Run 1, Run 2
T3 sequence (Q15831 1-433): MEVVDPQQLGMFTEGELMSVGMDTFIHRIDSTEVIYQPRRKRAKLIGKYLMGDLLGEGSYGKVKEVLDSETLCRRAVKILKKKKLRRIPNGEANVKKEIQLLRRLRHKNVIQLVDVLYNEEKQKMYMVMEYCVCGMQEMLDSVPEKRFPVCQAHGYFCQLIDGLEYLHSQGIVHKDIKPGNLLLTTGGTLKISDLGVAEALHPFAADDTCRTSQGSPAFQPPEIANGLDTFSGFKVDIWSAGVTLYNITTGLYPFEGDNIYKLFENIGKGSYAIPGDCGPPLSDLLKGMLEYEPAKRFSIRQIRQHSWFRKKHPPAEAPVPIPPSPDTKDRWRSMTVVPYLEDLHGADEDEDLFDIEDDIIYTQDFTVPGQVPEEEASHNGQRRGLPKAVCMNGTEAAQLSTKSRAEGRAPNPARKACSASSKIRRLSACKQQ
T3 sequence (Q7RTN6 1-431 partner): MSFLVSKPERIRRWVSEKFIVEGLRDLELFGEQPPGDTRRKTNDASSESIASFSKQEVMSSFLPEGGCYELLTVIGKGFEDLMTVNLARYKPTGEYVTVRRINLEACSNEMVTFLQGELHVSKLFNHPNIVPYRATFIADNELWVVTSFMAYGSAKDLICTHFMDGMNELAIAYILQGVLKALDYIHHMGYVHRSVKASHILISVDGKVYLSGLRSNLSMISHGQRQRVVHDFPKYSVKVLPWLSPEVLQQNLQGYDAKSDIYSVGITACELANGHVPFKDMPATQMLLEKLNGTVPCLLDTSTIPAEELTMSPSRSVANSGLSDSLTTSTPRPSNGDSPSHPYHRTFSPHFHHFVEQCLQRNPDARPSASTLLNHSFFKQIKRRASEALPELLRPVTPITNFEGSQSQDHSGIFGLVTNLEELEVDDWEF
T3 sequence (Q9Y376 1-341 partner): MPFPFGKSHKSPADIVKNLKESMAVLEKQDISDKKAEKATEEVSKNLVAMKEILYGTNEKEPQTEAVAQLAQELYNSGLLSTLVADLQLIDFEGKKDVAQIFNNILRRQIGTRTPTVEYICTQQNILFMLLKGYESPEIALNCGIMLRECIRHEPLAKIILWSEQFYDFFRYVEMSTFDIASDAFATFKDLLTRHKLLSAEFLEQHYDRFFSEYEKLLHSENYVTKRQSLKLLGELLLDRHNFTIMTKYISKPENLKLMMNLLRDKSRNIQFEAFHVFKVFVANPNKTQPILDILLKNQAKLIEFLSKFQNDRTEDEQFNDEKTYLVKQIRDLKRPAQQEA

MSK1/RPS6KA5 = MSK1/RPS6KA5 (Homo sapiens, UniProt O75582); settings: 1 μM; Run 1, Run 2
Sequence of MSK1/RPS6KA5 (O75582 whole entry): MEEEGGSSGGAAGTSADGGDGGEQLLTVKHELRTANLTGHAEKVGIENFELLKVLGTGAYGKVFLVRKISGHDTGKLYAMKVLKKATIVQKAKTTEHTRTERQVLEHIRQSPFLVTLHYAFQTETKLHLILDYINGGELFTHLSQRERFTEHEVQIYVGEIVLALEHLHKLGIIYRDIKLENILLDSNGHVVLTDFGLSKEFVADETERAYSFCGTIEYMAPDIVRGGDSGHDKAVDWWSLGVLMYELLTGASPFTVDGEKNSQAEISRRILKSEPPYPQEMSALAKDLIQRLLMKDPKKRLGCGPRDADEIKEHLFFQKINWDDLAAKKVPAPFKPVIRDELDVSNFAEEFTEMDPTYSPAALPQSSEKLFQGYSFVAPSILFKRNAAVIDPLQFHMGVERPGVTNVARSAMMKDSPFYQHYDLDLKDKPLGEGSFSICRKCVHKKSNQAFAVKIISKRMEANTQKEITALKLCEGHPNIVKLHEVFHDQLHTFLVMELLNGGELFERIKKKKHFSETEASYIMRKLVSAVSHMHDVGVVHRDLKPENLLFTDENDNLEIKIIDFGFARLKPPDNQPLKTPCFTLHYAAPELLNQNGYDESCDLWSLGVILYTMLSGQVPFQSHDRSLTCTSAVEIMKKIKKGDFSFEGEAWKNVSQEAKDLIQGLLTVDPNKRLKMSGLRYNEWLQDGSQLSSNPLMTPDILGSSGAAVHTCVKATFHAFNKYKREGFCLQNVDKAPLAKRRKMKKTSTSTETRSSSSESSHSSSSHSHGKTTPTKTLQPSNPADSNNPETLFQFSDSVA

ERK5/MAPK7 = ERK5/MAPK7 (Homo sapiens, UniProt Q13164); settings: 1 μM; Run 1, Run 2
Sequence of ERK5/MAPK7 (Q13164 whole entry): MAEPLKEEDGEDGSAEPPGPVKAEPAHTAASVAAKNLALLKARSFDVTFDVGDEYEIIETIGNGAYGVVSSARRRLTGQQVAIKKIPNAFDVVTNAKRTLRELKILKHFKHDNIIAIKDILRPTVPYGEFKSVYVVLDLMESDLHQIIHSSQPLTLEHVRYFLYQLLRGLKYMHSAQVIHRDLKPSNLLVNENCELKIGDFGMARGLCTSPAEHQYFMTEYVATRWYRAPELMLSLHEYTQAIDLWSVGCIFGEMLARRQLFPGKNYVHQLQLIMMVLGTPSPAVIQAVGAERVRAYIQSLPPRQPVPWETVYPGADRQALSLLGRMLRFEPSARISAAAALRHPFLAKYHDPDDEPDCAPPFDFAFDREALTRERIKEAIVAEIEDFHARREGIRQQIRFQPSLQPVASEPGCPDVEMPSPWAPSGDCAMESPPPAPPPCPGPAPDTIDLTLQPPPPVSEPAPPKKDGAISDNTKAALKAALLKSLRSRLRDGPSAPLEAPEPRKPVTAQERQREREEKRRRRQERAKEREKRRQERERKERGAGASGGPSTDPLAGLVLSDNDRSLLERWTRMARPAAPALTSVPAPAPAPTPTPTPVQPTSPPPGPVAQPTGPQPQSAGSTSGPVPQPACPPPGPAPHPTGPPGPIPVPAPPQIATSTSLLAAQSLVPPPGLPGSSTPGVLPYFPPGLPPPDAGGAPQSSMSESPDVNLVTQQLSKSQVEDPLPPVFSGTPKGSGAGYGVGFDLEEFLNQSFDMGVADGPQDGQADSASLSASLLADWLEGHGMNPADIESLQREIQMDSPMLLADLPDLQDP

CAMK2a = CAMK2a (Homo sapiens, UniProt Q9UQM7); settings: 1 μM; Run 1, Run 2
Sequence of CAMK2a (Q9UQM7 whole entry): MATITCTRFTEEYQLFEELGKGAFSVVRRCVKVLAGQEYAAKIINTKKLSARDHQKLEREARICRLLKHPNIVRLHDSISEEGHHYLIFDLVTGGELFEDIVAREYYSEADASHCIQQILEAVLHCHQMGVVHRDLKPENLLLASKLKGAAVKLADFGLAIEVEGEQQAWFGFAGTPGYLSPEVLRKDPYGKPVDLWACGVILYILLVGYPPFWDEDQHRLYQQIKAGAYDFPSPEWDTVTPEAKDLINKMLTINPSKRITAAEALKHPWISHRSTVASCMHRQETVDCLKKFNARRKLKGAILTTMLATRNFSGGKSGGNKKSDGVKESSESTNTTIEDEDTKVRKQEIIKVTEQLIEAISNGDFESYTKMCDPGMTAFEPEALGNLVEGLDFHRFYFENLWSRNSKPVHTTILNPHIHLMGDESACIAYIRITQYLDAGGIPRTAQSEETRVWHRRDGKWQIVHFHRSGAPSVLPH

CDK2/cyclin E2 = CDK2/cyclin E2 (Homo sapiens, UniProt P24941); experiment: biochemical; settings: read-out: % enzyme activity, 1 μM; Run 1, Run 2

Sequence of JAK2 (O60674 whole entry): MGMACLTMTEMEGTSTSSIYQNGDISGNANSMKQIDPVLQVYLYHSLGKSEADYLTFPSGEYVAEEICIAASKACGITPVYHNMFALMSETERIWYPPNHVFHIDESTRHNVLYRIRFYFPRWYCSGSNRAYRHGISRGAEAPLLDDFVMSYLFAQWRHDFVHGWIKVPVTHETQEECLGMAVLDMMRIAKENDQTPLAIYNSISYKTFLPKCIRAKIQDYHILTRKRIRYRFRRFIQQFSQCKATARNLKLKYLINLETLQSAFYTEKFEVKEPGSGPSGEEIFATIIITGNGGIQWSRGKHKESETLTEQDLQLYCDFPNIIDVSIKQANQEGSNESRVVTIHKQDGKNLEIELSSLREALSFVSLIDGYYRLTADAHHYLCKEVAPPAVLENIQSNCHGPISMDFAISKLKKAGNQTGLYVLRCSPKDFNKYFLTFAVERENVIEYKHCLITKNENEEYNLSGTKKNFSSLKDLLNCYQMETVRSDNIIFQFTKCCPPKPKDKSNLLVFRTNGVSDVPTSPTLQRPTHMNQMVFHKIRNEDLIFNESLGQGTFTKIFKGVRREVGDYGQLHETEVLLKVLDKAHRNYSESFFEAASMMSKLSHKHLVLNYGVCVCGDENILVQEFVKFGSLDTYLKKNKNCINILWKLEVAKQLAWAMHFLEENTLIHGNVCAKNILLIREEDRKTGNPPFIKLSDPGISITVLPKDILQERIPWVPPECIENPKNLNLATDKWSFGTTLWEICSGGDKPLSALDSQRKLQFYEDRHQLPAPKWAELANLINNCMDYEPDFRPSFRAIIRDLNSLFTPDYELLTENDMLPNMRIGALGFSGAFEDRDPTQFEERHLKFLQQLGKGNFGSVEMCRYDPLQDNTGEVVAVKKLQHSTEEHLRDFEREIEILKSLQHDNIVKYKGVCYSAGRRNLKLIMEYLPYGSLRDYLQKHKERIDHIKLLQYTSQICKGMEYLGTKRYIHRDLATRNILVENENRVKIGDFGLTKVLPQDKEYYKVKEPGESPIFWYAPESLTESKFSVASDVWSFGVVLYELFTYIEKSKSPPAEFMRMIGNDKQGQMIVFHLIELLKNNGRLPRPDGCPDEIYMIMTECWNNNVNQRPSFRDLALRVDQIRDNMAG
Sequence of PAK2 (Q13177 whole entry): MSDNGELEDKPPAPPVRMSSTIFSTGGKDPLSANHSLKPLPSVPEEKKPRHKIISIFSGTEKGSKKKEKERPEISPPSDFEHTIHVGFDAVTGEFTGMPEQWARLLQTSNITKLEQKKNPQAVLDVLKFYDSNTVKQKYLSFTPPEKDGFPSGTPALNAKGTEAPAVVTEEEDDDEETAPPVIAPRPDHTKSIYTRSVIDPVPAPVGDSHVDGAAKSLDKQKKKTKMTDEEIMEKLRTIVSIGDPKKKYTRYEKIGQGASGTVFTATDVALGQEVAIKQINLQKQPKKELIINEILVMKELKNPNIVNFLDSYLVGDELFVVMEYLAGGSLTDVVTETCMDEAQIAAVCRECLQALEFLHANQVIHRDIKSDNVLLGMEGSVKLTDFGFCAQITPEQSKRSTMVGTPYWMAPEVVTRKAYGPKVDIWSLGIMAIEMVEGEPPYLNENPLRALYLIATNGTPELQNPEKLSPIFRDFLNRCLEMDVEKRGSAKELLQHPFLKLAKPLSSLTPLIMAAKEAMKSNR

Row | Compound | % enzyme activity (JAK2) | remaining activity at 1 µM (PAK2) | % enzyme activity (HIPK4) | % enzyme activity (TLK1) | % enzyme activity (LKB1) | % enzyme activity (MSK1/RPS6KA5) | % enzyme activity (ERK5/MAPK7) | % enzyme activity (CAMK2a) | remaining activity at 1 µM (CDK2/cyclin E2)
1 | COc1cc(-c2cncc(-c3ccc(N4CCN(C)CC4)cc3)c2C)cc(F)c1C(N)=O [Compound 26a, 2-Fluoro-6-methoxy-4-(4-methyl-5-(4-(4-methylpiperazin-1-yl)phenyl)pyridin-3-yl)benzamide] | 92.09% | 101% | 102.90% | 107.91% | 79.50% | 82.15% | 92.77% | 83.69% | 108%
2 | COc1cc(-c2cncc(-c3ccc(N4C[C@@H](C)N(C)[C@@H](C)C4)cc3)c2C)cc(F)c1C(N)=O [Compound 26c, 2-Fluoro-6-methoxy-4-(4-methyl-5-(4-((3R,5S)-3,4,5-trimethylpiperazin-1-yl)phenyl)pyridin-3-yl)benzamide] | 88.17% | 104% | 97.53% | 100.84% | 90.86% | 89.44% | 98.01% | 93.72% | 95%
